Reference: ChEMBL document CHEMBL1165911, “Elaborate ligand-based pharmacophore exploration and QSAR analysis guide the synthesis of novel pyridinium-based potent beta-secretase inhibitory leads” (Bioorg Med Chem, 2010)
Peptide text beside a SMILES is read from it. * marks the point of attachment. Boc = CC(C)(C)OC(=O)*; OBn = c1ccc(CO*)cc1; Bn = c1ccc(C*)cc1

The compounds below were run against Beta-secretase 1 (Homo sapiens, UniProt P56817).
Beta-secretase 1, sequence (P56817 whole entry): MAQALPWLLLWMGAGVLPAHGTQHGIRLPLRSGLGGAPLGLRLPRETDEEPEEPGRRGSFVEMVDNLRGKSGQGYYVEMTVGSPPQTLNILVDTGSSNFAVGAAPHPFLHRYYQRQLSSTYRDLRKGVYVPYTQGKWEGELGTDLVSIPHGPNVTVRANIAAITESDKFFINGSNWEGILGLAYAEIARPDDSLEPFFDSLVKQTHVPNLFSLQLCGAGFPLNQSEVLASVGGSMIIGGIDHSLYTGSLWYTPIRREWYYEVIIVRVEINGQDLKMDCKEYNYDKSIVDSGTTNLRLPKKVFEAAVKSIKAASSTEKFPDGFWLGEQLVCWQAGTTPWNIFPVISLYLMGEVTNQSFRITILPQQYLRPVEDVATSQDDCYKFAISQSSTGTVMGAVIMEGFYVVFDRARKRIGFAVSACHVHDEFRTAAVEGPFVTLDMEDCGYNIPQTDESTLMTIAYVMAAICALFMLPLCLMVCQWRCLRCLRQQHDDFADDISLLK
Description: Inhibition of BACE1 after 2 hrs by FRET assay

SMILES | IC50
CCc1ccc(N2C(=O)Nc3ccc(Br)cc3C2(O)C(=O)NCC(C)CN2CCC(C)CC2)cc1 (stereo not given) | 100 µM
COc1cccc2cc(C(=O)Nc3cc(Br)ccc3N3CCN(Cc4ccccc4)CC3)c(=O)oc12 | 5 µM
COc1cc(/C=N\NC(=O)c2ccccc2OCCOc2ccccc2)cc(Br)c1O | 500 µM
Oc1c(I)cc(I)cc1/C=N/Nc1nc(NCc2ccccc2)nc(N2CCOCC2)n1 | 100 µM
Cc1c(CC(=O)N[C@H](CCCNC(N)=O)C(=O)O)c(=O)oc2c(C)c(O)ccc12 | 500 µM
Cc1ccc(NC(=O)c2cc(NC(=O)CCCC(=O)O)ccc2N2CCOCC2)cc1 | 500 µM
CCc1ccc(Sc2c(N)c3c(c(N)c2Sc2ccc(CC)cc2)C(=O)c2ccccc2C3=O)cc1 | 253 µM
C[C@@H](NC(=O)c1cc(NS(C)(=O)=O)cc(C(=O)N[C@@H](Cc2ccccc2)[C@H](O)CNC2CC2)c1)c1ccc(F)cc1 | 63 µM
CCc1ccc(N2C(=O)Nc3ccc(Br)cc3C2(O)C(=O)NCc2ccccc2)cc1 (stereo not given) | 100 µM
Cc1ccc(Nc2nc(N/N=C/c3cccc(Br)c3)nc(N3CCOCC3)n2)cc1 | 100 µM
Cc1ccc(C)c(Nc2nc(N/N=C/c3cc(Br)c(O)c(Br)c3C)nc(N3CCOCC3)n2)c1 | 81.8 µM
O=C(NCc1ccc(F)cc1)c1ccc(N2CC3CC(C2)c2cccc(=O)n2C3)c(NS(=O)(=O)c2ccc3c(c2)OCCO3)c1 (stereo not given) | 100 µM
COc1cc2[nH]c(=O)n(Cc3ccc(C(=O)NCc4ccc(C)cc4)cc3)c(=O)c2cc1OC | 100 µM
O=C(NCc1ccccc1Cl)c1ccc(N2CC3CC(C2)c2cccc(=O)n2C3)c(NS(=O)(=O)c2ccc3c(c2)OCCO3)c1 (stereo not given) | 100 µM
COc1cccc(C(=O)OCC(=O)NCc2ccc(Cl)cc2Cl)c1O | 500 µM
C[C@@H](NC(=O)c1cc(C(=O)N[C@@H](Cc2ccccc2)[C@H](O)CNC2CC2)cc(N(C)S(C)(=O)=O)c1)c1ccc(F)cc1 | 10 µM
O=C(NCCc1ccccc1)c1c[nH]c2ccc(S(=O)(=O)N3CCc4ccccc4C3)cc2c1=O | 100 µM
Cc1cc(C)nc(NS(=O)(=O)c2ccc(Nc3nc(-c4ccc(C(C)C)cc4)cs3)cc2)n1 | 1000 µM
CCOc1nc(NCCN2CCOCC2)nc(NNc2ccc(I)cc2C)n1 | 11.9 µM
Oc1ccc(-c2ccccc2)cc1CN1CCN(Cc2cc(-c3ccccc3)ccc2O)CC1 | 100 µM
CCCCc1ccc(Nc2nc3ccccc3nc2NS(=O)(=O)c2ccc(Cl)cc2)cc1 | 100 µM
Clc1ccc(/C=N/Nc2nc(Nc3ccccc3)nc(Nc3ccccc3)n2)cc1Cl | 100 µM
COc1ccc(C(=O)Nc2ccccc2C(=O)NC(CCSC)C(=O)NNC(=O)Sc2nc3ccccc3s2)cc1 (stereo not given) | 50 µM

SMILES | IC50
CCN1CCCC1CNC(=O)c1ccc2c(=O)n(Cc3cccc(Br)c3)c(=S)[nH]c2c1 (stereo not given) | 100 µM
CCc1cc(=O)oc2c(C)c(OC(=O)NCC(=O)NCC(=O)O)ccc12 | 500 µM
CCCc1cc(=O)oc2c(C)c(OCC(=O)NCC(=O)NCC(=O)O)ccc12 | 100 µM
Cc1cc(O)c2c(C)c(CC(=O)N[C@H](CCCNC(N)=O)C(=O)O)c(=O)oc2c1 | 500 µM
O=C(Nc1ccc(Cl)cc1C(=O)c1ccccc1)c1ccc(Nc2nc(-c3ccccc3)c3cc(Br)ccc3n2)cc1 | 100 µM
CCCc1cc(=O)oc2cc(OCC(=O)NCC(=O)NCC(=O)O)ccc12 | 500 µM
CCN1CCCC1CNC(=O)c1ccc2c(=O)n(Cc3ccc(Cl)cc3)c(=S)[nH]c2c1 (stereo not given) | 100 µM
Oc1c(I)cc(I)cc1/C=N/Nc1nc(Nc2cccc3ccccc23)nc(N2CCOCC2)n1 | 100 µM
Clc1ccc(/C=N/Nc2nc(NCc3ccc(Cl)cc3)nc(N3CCOCC3)n2)cc1 | 100 µM
CC1CCCCN1CCNC(=O)c1cc(=O)[nH]c2ccc(S(=O)(=O)N3CCOCC3)cc12 (stereo not given) | 100 µM
C[C@@H](NC(=O)c1cc(C(=O)N[C@@H](Cc2ccccc2)[C@H](O)CN)cc(N(C)S(C)(=O)=O)c1)c1ccc(F)cc1 | 23 µM
FC(F)(Cl)Oc1ccc(Nc2nc(NCc3ccccc3)nc(N3CCCCC3)n2)cc1 | 100 µM
CCSc1scc(CC)c1C1C(C(=O)Nc2ccc(Br)cn2)=C(C)NC2=C1C(=O)CC(C)(C)C2 (stereo not given) | 100 µM
CN(C)c1nc(N/N=C/c2cc(I)cc(I)c2O)nc(N2CCOCC2)n1 | 100 µM
CC1CCCCN1CCNC(=O)c1cc(=O)[nH]c2ccc(S(=O)(=O)N3CCCCC3)cc12 (stereo not given) | 100 µM
O=C(O)CC(NNc1nc(NCCO)nc(N2CCOCC2)n1)c1ccccc1 (stereo not given) | 500 µM
C[C@@H](NC(=O)c1cc(C(=O)N[C@@H](Cc2ccccc2)[C@H](O)CNC(C)(C)C)cc(N(C)S(C)(=O)=O)c1)c1ccc(F)cc1 | 15 µM
O=C(CN1CCN(Cc2ccccc2)CC1)N/N=C\c1cc(I)cc(I)c1O | 100 µM
O=C(Nc1cc(Br)ccc1N1CCOCC1)c1cccc2ccccc12 | 20 µM
CC(C)(C)OC(=O)N1CCN(c2ccc(Br)cc2NC(=O)c2cccc3ccccc23)CC1 | 1 µM
C=CN(C=C)C(=O)c1cc(OCC(=O)NCCCCCN)cc(C(=O)N[C@H](C)c2ccccc2)c1 | 25 µM
O=C(NCCc1ccc(Cl)cc1)c1ccc(Cn2c(=S)[nH]c3ccc(N4CCOCC4)cc3c2=O)cc1 | 100 µM
Cc1oc(-c2ccccc2)cc1C(=O)NCC(=O)NC(C(=O)O)C(C)C (stereo not given) | 500 µM

SMILES | IC50
O=C(O)c1cc(-c2ccc(/C=N/Nc3nc(Nc4ccc(F)cc4)nc(N4CCOCC4)n3)o2)ccc1Cl | 7.1 µM
CCOc1cc(/C=N\NC(=O)COc2ccc(C)cc2)cc(I)c1O | 100 µM
COc1cc(/C=N/Nc2nc(Nc3ccc(F)cc3)nc(N3CCCCC3)n2)ccc1OCC(=O)O | 100 µM
Cc1ccc(Nc2nc(CN3CCOCC3)nc(N/N=C/c3cc(Br)cc(Br)c3O)n2)cc1 | 48.1 µM
CCOc1cc(C2C(C(=O)OCc3ccccc3)=C(C)NC3=C2C(=O)CC(C)(C)C3)cc(Br)c1O (stereo not given) | 100 µM
O=C(NCCc1ccc(Cl)cc1)C1CCC(CNc2nc(=S)[nH]c3ccccc23)CC1 (stereo not given) | 100 µM
NS(=O)(=O)c1ccc(NC(=O)CSc2nnc(-c3ccccc3)c(-c3ccccc3)n2)cc1 | 100 µM
O=C(NCc1ccccc1)c1c[nH]c2ccc(S(=O)(=O)NC3CCCCNC3=O)cc2c1=O (stereo not given) | 100 µM
COc1cccc2cc(C(=O)Nc3cc(Br)ccc3N3CCN(C(=O)OC(C)(C)C)CC3)c(=O)oc12 | 1 µM
Cc1cccc(N(C)S(=O)(=O)c2ccc3ncc(C(=O)NCCN4CCOCC4)c(O)c3c2)c1 | 100 µM
Cc1ccc(CNC(=O)c2ccc(N3CC4CC(C3)c3cccc(=O)n3C4)c(NS(=O)(=O)c3ccc4c(c3)OCCO4)c2)cc1 (stereo not given) | 100 µM
O=C1CSC(c2ccc(Cl)cc2)N1Nc1nc(Nc2ccccc2)nc(N2CCCCC2)n1 (stereo not given) | 100 µM
CSc1ccc(C(O)C(CO)NC(=O)c2cc3c(n(-c4ccc(Cl)cc4)c2=O)CC(C)(C)CC3=O)cc1 (stereo not given) | 100 µM
Clc1ccc(/C=N/Nc2nc(Nc3cccc(Br)c3)nc(N3CCOCC3)n2)cc1 | 100 µM
CN(C)CCNC(=O)c1c[nH]c2ccc(S(=O)(=O)N3CCc4ccccc4C3)cc2c1=O | 100 µM
CC(C)S(=O)(=O)N(C)c1cc(C(=O)N[C@@H](Cc2ccccc2)[C@H](O)CNC2CC2)cc(C(=O)N[C@H](C)c2ccccc2)c1 | 41 µM
CCSc1sc(CC)cc1C1C(C(=O)Nc2ccc(C)cn2)=C(C)NC2=C1C(=O)CC(C)(C)C2 (stereo not given) | 100 µM
COc1cccc2cc(C(=O)Nc3cc(Br)ccc3N3CCOCC3)c(=O)oc12 | 10 µM
O=C(O)c1cc(-c2ccc(/C=N/Nc3nc(Nc4ccccc4)nc(N4CCCCC4)n3)o2)ccc1Cl | 152 µM
CCCCCCc1nc2ccccc2c(=O)n1NC(O)c1c(O)c2cccc3c2n(c1=O)CCC3 (stereo not given) | 100 µM
CC(NC(=O)NCCNC(=O)NC(C)C(=O)O)C(=O)O (stereo not given) | 500 µM
Cc1ccc(C)c(Nc2nc(N/N=C/c3cc(Br)cc(Br)c3O)nc(N3CCOCC3)n2)c1 | 100 µM
C[C@@H](NC(=O)c1cc(C(=O)N[C@@H](Cc2ccccc2)[C@H](O)CNC2CC2)cc(N(C)S(=O)(=O)N(C)C)c1)c1ccccc1 | 14 µM

SMILES | IC50
C=CCn1c(SCC(=O)Nc2ccc(S(N)(=O)=O)cc2)nc2sc3c(c2c1=O)CCCC3 | 100 µM
Cc1c(CC(=O)N[C@H](CCCNC(N)=O)C(=O)O)c(=O)oc2cc(O)ccc12 | 500 µM
O=C(O)CCCNC(=O)CCCCC(=O)C(c1ccccc1)c1ccccc1 | 500 µM
O=C(NCc1ccc(Cl)cc1)c1ccc(N2CC3CC(C2)c2cccc(=O)n2C3)c(NS(=O)(=O)c2ccc3c(c2)OCCO3)c1 (stereo not given) | 100 µM
O=C(O)c1cccc(-c2ccc(/C=N/Nc3nc(Nc4ccccc4)nc(N4CCCCC4)n3)o2)c1 | 100 µM
O=C(NCc1ccccc1)c1ccc(N2CC3CC(C2)c2cccc(=O)n2C3)c(NS(=O)(=O)c2ccc3c(c2)OCCO3)c1 (stereo not given) | 100 µM
O=C(Nc1cc(Br)ccc1N1CCOCC1)c1cc2ccccc2oc1=O | 10 µM
COc1cc(/C=N/Nc2nc(Nc3ccccc3)nc(N3CCOCC3)n2)cc(Br)c1O | 100 µM
COc1nc(NCCN2CCOCC2)nc(Nc2ccc(I)cc2)n1 | 100 µM
CCNC[C@@H](O)[C@H](Cc1ccccc1)NC(=O)c1cc(C(=O)N[C@H](C)c2ccc(F)cc2)cc(N(C)S(C)(=O)=O)c1 | 15 µM
NS(=O)(=O)c1ccc(CCNC(=O)CCc2nc3sc4c(c3c(=O)[nH]2)CCCC4)cc1 | 100 µM
O=C(Nc1ccc(Cl)c(C(F)(F)F)c1)C(NS(=O)(=O)c1cccs1)c1ccccc1 (stereo not given) | 100 µM
CC1CCN(S(=O)(=O)c2ccc3[nH]c(=O)cc(C(=O)NCCCN4CCCC4)c3c2)CC1 | 100 µM
CCN1CCN(CCNC(=O)c2ccc3c(=O)n(Cc4ccc(Cl)cc4)c(=S)[nH]c3c2)CC1 | 100 µM
Cc1cc(Br)c(Nc2nc(CN3CCOCC3)nc(N/N=C/c3cc(I)cc(C)c3O)n2)cc1Cl | 100 µM
Clc1nc(NCCN2CCOCC2)nc(NCc2ccc(I)cc2)n1 | 100 µM
O=C(O)c1cc(-c2ccc(/C=N/Nc3nc(Nc4ccc(F)cc4)nc(N4CCCCC4)n3)o2)ccc1O | 27.9 µM
CC(C)(C)OC(=O)NC(CC(=O)OCc1ccccc1)C(=O)NC(COCc1ccccc1)C(=O)NCC(=O)OCc1ccccc1 (stereo not given) (Boc-Asp(OBn)-Ser(Bn)-Gly-OBn; configuration not given here) | 100 µM
O=C(Nc1ccccc1C(=O)NCC(O)CNC(=O)c1ccccc1NC(=O)c1ccccc1)c1ccccc1 | 100 µM
COc1ccc(-n2nc(C(=O)NCC(=O)Nc3cccc(C)n3)c3ccccc3c2=O)cc1Cl | 100 µM
O=C(CC1Sc2ccccc2NC1=O)Nc1ccccc1SC(F)(F)C(F)(F)C(F)(F)F (stereo not given) | 100 µM
